Tests used:
Assay in all cases: relative viability (nuclei count vs DMSO), 5 days (fraction); higher = more cells survive
17-AAG = compound: C=CCNC1=C2C[C@@H](C)C[C@H](OC)[C@H](O)[C@@H](C)/C=C(\C)[C@H](OC(N)=O)[C@@H](OC)/C=C\C=C(/C)C(=O)NC(=CC1=O)C2=O [17-AAG]
Procedure, shortened: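 Lung cancer cell lines received five library-drug doses (not always all listed) spaced by √10, pinned on vehicle-anchored 1536-well plates after an overnight stay at 37 °C. Five days later, with no medium change, nuclei were Hoechst-stained, imaged at 4× and counted with MetaXpress. Viability is treated-well nuclei relative to vehicle-well nuclei, as a median across plates. Passing plates had control CV below 25% and at least one doubling.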

17-AAG + Trametinib = compound: C=CCNC1=C2C[C@@H](C)C[C@H](OC)[C@H](O)[C@@H](C)/C=C(\C)[C@H](OC(N)=O)[C@@H](OC)/C=C\C=C(/C)C(=O)NC(=CC1=O)C2=O [17-AAG] + CC(=O)Nc1cccc(-n2c(=O)n(C3CC3)c(=O)c3c(Nc4ccc(I)cc4F)n(C)c(=O)c(C)c32)c1 [Trametinib] (partner 0.02 µM)
Procedure, shortened: (§1)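 One day after seeding in 1536-well plates, lung cancer cell lines were dosed by pin tool. Dosing was either single-drug or a fixed anchor-drug dose plus five library-drug doses (not always all listed) in √10 steps. After 5 days, nuclei were stained in one fix-and-stain step and counted on 4× images, and relative viability is the nuclei count of treated wells over that of vehicle wells, given as the median of duplicate plates.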

17-AAG + Phenformin = compound: C=CCNC1=C2C[C@@H](C)C[C@H](OC)[C@H](O)[C@@H](C)/C=C(\C)[C@H](OC(N)=O)[C@@H](OC)/C=C\C=C(/C)C(=O)NC(=CC1=O)C2=O [17-AAG] + N=C(N)NC(=N)NCCc1ccccc1 [Phenformin] (partner 250 µM)
Procedure, shortened: as §1

17-AAG + Olaparib = compound: C=CCNC1=C2C[C@@H](C)C[C@H](OC)[C@H](O)[C@@H](C)/C=C(\C)[C@H](OC(N)=O)[C@@H](OC)/C=C\C=C(/C)C(=O)NC(=CC1=O)C2=O [17-AAG] + O=C(c1cc(Cc2n[nH]c(=O)c3ccccc23)ccc1F)N1CCN(C(=O)C2CC2)CC1 [Olaparib] (partner 8 µM)
Procedure, shortened: as §1

Cell Line	relative viability (17-AAG; 0.00128 µM)	relative viability (17-AAG; 0.004048 µM)	relative viability (17-AAG; 0.0128 µM)	relative viability (17-AAG; 0.04048 µM)	relative viability (17-AAG; 0.128 µM)	relative viability (17-AAG + Trametinib; first compound 0.00128 µM)	relative viability (17-AAG + Trametinib; first compound 0.004048 µM)	relative viability (17-AAG + Trametinib; first compound 0.0128 µM)	relative viability (17-AAG + Trametinib; first compound 0.04048 µM)	relative viability (17-AAG + Trametinib; first compound 0.128 µM)	relative viability (17-AAG + Phenformin; first compound 0.00128 µM)	relative viability (17-AAG + Phenformin; first compound 0.004048 µM)	relative viability (17-AAG + Phenformin; first compound 0.0128 µM)	relative viability (17-AAG + Phenformin; first compound 0.04048 µM)	relative viability (17-AAG + Phenformin; first compound 0.128 µM)	relative viability (17-AAG + Olaparib; first compound 0.00128 µM)	relative viability (17-AAG + Olaparib; first compound 0.004048 µM)	relative viability (17-AAG + Olaparib; first compound 0.0128 µM)	relative viability (17-AAG + Olaparib; first compound 0.04048 µM)	relative viability (17-AAG + Olaparib; first compound 0.128 µM)
EPLC-272H	1.02	0.968	0.663	0.159	0.104	0.278	0.268	0.229	0.169	0.135	0.32	0.327	0.202	0.095	0.0918	0.721	0.662	0.195	0.0777	0.0732
NCI-H2347	0.958	0.998	1.13	0.557	0.385	0.335	0.275	0.351	0.288	0.321	0.466	0.38	0.275	0.187	0.191	0.589	0.607	0.496	0.349	0.341
NCI-H1792	0.888	0.772	0.347	0.165	0.181	0.483	0.337	0.216	0.0858	0.056	0.338	0.216	0.066	0.0797	0.0405	0.456	0.284	0.221	0.0633	0.0524
NCI-H1993	0.937	0.909	0.611	0.476	0.432	0.61	0.464	0.49	0.313	0.387	0.507	0.451	0.472	0.397	0.404	1.16	0.949	0.98	0.37	0.299
NCI-H647	0.985	0.779	0.135	0.108	0.091	0.402	0.29	0.0765	0.0969	0.0756	0.569	0.446	0.0903	0.103	0.103	0.575	0.237	0.0687	0.0686	0.0642
NCI-H1793	0.967	0.842	0.282	0.186	0.135	0.36	0.318	0.273	0.18	0.142	0.349	0.391	0.229	0.146	0.0817	0.903	0.594	0.184	0.198	0.141
NCI-H1395	0.79	0.818	0.648	0.388	0.342	1.09	0.984	0.807	0.448	0.368	0.449	0.425	0.4	0.358	0.324	0.452	0.458	0.359	0.37	0.418
HCC-827	1.05	0.997	1.02		0.77	0.508	0.508	0.502		0.311	0.368	0.447	0.363		0.251	0.698	0.755	0.769		0.331
ChaGo-K-1	0.961	0.966	0.877	0.463	0.307	0.918	0.873	0.767	0.857	0.735	0.444	0.587	0.422	0.273	0.163	0.439	0.453	0.388	0.366	0.257
NCI-H2228	1.08	0.72	0.125	0.112	0.152	0.378	0.232	0.102	0.113	0.144	0.337	0.185	0.0958	0.099	0.0688	0.523	0.21	0.127	0.111	0.147
NCI-H2170	1.01	0.973	0.605	0.178	0.168	0.958	0.843	0.91	0.402	0.134	0.408	0.453	0.297	0.163	0.135	0.663	0.565	0.466	0.129	0.12
EMC-BAC-2	1.13	0.986	0.889	0.396	0.362	0.946	0.821	0.765	0.335	0.235	0.576	0.535	0.427	0.261	0.189	0.533	0.516	0.316	0.334	0.273
NCI-H522	0.805	1.09	0.782	0.602	0.433	0.724	0.836	0.679	0.686	0.374	0.627	0.599	0.635	0.294	0.471	0.517	0.878	0.505	0.485	0.399
NCI-H23	0.949	0.851	0.289	0.177	0.147	0.336	0.344	0.246	0.148	0.116	0.665	0.769	0.575	0.319	0.155	0.364	0.296	0.155	0.109	0.107
SK-LU-1	1.06	0.796	0.315	0.229	0.181	0.436	0.473	0.217	0.195	0.216	0.484	0.214	0.119	0.116	0.0908	0.512	0.439	0.301	0.153	0.173
